Several values for one entry are separate records, joined by “and”; a condition that tells them apart may be missing. Identical values can stand only once.
Key:
plasma [1] = test: Anticoagulant activity: thrombin time (TT); format: biochemical, human; settings: 20 μl sample + 80 μl plasma, test material g/dL (Asp 7.5 mg/Ml)
Method: (§1) Antithrombotic (anticoagulant) activity was evaluated according to a previously reported method. Each of thromborel S, actin and thrombin, which are reagents for Sysmex CA-1500 for analysis of PT, aPTT and TT, was mounted in Sysmex CA-1500 (Siemens Healthcare, Germany) which is an automated blood coagulation test device. According to the automated procedure of the test device, clotting time (sec) (prothrombin time (PT), activated partial thromboplastin time (aPTT) and thrombin time (TT)) was measured. A sufficient amount of a sample for each of the three analyses was about 400 uL of an 80:20 mixture of plasma and a test substance.
(§2) The isolated plasma was used in an experiment in a fresh state within 5-6 hours.
(§3) In this experiment, for the relative comparison of the measured clotting time (sec) (PT, aPTT and TT) between test groups, clotting time prolongation (%) relative to triple distilled water (purified water) that is a normal control test sample was statistically analyzed. For statistical analysis, the […] anticoagulant activities of test materials were comparatively analyzed using SPSS IBM version 21.0 by one-way ANOVA at p<0.05, and significance comparison between groups was performed by Duncan's test.
(§4) The aspirin solution was immediately used at room temperature in a light-shielded state or was cold-stored.
(§5) As a control, aspirin was used, and as a vehicle control, triple distilled water (purified water) was used instead of the sample.

plasma [2] = test: Anticoagulant activity: prothrombin time (PT); format: biochemical, human; settings: 20 μl sample + 80 μl plasma, test material g/dL (Asp 7.5 mg/Ml)
Method: as §1, §2, §3, §4, §5

plasma [3] = test: Anticoagulant activity: activated partial thromboplastin time (aPTT); format: biochemical, human; settings: 20 μl sample + 80 μl plasma, test material g/dL (Asp 7.5 mg/Ml)
Method: as §1, §2, §3, §4, §5

[4] = Blood biochemistry (triglyceride, AST, ALT) in high-fat diet mice; format: in vivo, mice (C57BL/6); settings: blood
Method: (§6) Using 8-week-old male mice (C57BL/6) (purchased from CoreTech), anti-diabetic candidate materials were evaluated using a GTT (Glucose Tolerance Test) that is a typical method for diagnosis of diabetes.
(§7) As feed, high-fat diet (60% of calories from fat; Research Diet Inc., New Brunswick, N.J.) and water were fed ad libitum for 10 weeks. Herein, the water fed contained the samples prepared in Examples 1-2 (3), 2-1, 2-4-1, 2-4-2 and 2-5. As a positive control, metformin (M-072, Sigma) (250 mg/kg) was used, and as a control, the samples prepared in Comparative Examples 1-1, 2-3-2, 2-5-1, 2-5-2 and 2-6 were used.
In blood biochemistry, insulin (AKRIN-011T, Shibayagi, Japan), glucose (AM202, Asan Pharmaceutical Co., Ltd., Korea), triglyceride (AM157, Asan Pharmaceutical Co., Ltd.), total cholesterol (AM202, Asan Pharmaceutical Co., Ltd.), AST and ALT (Asan Pharmaceutical Co., Ltd.) were analyzed using enzymatic assay kits.
At 10 weeks of high-fat diet feeding, the mice were sacrificed by cervical dislocation to obtain serum. For histological examination, the liver, white adipose tissue (WAT), brown adipose tissue (BAT) and kidney were fixed with formalin (50-00-0, Junsei, Japan), and the remaining organs were stored at −70° C. The blood sampled from the heart was coagulated to obtain serum which was then stored at −70° C.
(§8) Meanwhile, experimental analysis results were expressed as mean±S.E.M., and the significance between test groups was statistically processed using Student T-TEST, and then the significance was verified at *P<0.05.

[5] = Body weight and body weight gain of high-fat diet mice; format: in vivo, mice (C57BL/6); settings: for Body weight gain, Mean / Body weight, Mean: sample in drinking water, metformin 250 mg/kg
Method: as §6
(§9) Mice were housed at a temperature of 22±2° C. and a relative humidity of 55-60% with 12-hr light/12-hr dark cycles. Five animals were allotted to each group, and mice from the same mother were grouped into one group, because male mice tend to fight together.
as §7
(§10) For reference, each of the samples prepared in Examples 2-4-1, 2-4-2 and 2-5 was set to the amount to be taken by an adult (60 kg) for 3 days, and the amount was converted into a mouse dose (12-fold/kg, see the US NIH guidance), thereby preparing animal feed. Namely, the amount to be taken by an adult (60 kg) for 3 days is 180-day dose/kg, which corresponds to 15-day dose/kg for mice. Thus, the amount corresponds to 750-day dose/mouse (20 g), because the average weight of mice is about 20 g. Thus, one mouse was allowed to take 1/750 of the prepared sample each day.
(§11) In addition, each of the samples prepared in Examples 1-2 (3) and 2-1 was set to the amount to be taken by an adult (60 kg) for 2 days, and the amount was converted into a mouse dose (12-fold/kg, see the US NIH guidance), thereby preparing animal feed. Namely, the amount to be taken by an adult (60 kg) for 2 days is 120-day dose/kg, which corresponds to 10-day dose/kg for mice. Thus, the amount corresponds to 500-day dose/mouse (20 g), because the average weight of mice is about 20 g. Thus, one mouse was allowed to take 1/500 of the prepared sample each day.
The diet intake and the body weight gain were measured weekly for 8 weeks. The body weight and the diet intake were measured immediately before first drug administration, and then measured at one-week intervals.
as §8

[6] = Glucose tolerance test (GTT) in high-fat diet mice; format: in vivo, mice (C57BL/6); settings: GTT, high-fat diet mice
Method: as §6, §9, §7, §10, §11
At 8 weeks of high-fat diet feeding, a glucose tolerance test (GTT) was performed. For 8 hours for the test, mice were fasted. Then, blood was sampled from the tail vein, and initial blood glucose levels were measured with a blood glucose meter (AUTO-CHEK, Diatech Korea). Then, glucose was administered intraperitoneally to the mice at a concentration of 1 g/kg, and after 30 min, 60 min, 90 min and 120 min, blood was sampled from the mice, followed by measurement of blood glucose levels (each group consisting of five animals).
as §8

## CC(=O)Oc1ccccc1C(=O)O [Asp, aspirin]
Plasma [1]; Table 2
  TT, clotting time prolongation relative to purified water, Mean: 13.59%
Plasma [1]; Table 3, values excluding one sample showing an extreme value
  *TT, clotting time prolongation relative to purified water, Mean: 20.96%
Plasma [1]; Table 4
  TT, clotting time prolongation relative to purified water, Mean: 23.95%
Plasma [2]; Table 2
  PT, clotting time prolongation relative to purified water, Mean: 9.90%
Plasma [2]; Table 3
  PT, clotting time prolongation relative to purified water, Mean: 17.51%
Plasma [2]; Table 4
  PT, clotting time prolongation relative to purified water, Mean: 26.02%
Plasma [3]; Table 2
  aPTT, clotting time prolongation relative to purified water, Mean: 7.31%
Plasma [3]; Table 3
  aPTT, clotting time prolongation relative to purified water, Mean: 16.28%
Plasma [3]; Table 4
  aPTT, clotting time prolongation relative to purified water, Mean: 29.82%

## O=C(CO)[C@@H](O)[C@H](O)[C@H](O)CO [Fruc 6.2, fructose]
Plasma [1]; Table 4
  TT, clotting time prolongation relative to purified water, Mean: 13.19%
Plasma [2]; Table 4
  PT, clotting time prolongation relative to purified water, Mean: 0.54%
Plasma [3]; Table 4
  aPTT, clotting time prolongation relative to purified water, Mean: −0.20%

## O=C(CO)[C@@H](O)[C@H](O)[C@H](O)CO [Fruc 12.4, fructose]
Plasma [1]; Table 4
  TT, clotting time prolongation relative to purified water, Mean: 30.07%
Plasma [2]; Table 4
  PT, clotting time prolongation relative to purified water, Mean: 0.54%
Plasma [3]; Table 4
  aPTT, clotting time prolongation relative to purified water, Mean: 0.58%

## CN(C)C(=N)N=C(N)N [Metformin, metformin]
[4]
  Triglyceride level (mg/dl), Mean: 62.99 mg/dL
[5]; 1 week
  Body weight (g), Mean: 23.550 g and 25.094 g
  Body weight gain, Mean: 1.70 g
  Body weight, Mean: 21.00 g
[5]; 2 weeks
  Body weight (g), Mean: 23.608 g and 26.344 g
  Body weight gain (g), Mean: 2.503 g and 2.406 g
  Body weight gain, Mean: 3.48 g
  Body weight, Mean: 22.78 g
[5]; 3 weeks
  Body weight (g), Mean: 25.125 g and 27.430 g
  Body weight gain (g), Mean: 4.020 g and 3.492 g
  Body weight gain, Mean: 4.54 g
  Body weight, Mean: 23.84 g
[5]; 4 weeks
  Body weight (g), Mean: 25.705 g and 27.708 g
  Body weight gain (g), Mean: 4.600 g and 3.770 g
  Body weight gain, Mean: 5.88 g
  Body weight, Mean: 25.18 g
[5]; 5 weeks
  Body weight (g), Mean: 27.198 g and 28.572 g
  Body weight gain (g), Mean: 6.093 g and 4.634 g
  Body weight gain, Mean: 6.42 g
  Body weight, Mean: 25.72 g
[5]; 6 weeks
  Body weight (g), Mean: 28.355 g and 28.772 g
  Body weight gain (g), Mean: 7.250 g and 4.834 g
  Body weight gain, Mean: 7.04 g
  Body weight, Mean: 26.34 g
[5]; 7 weeks
  Body weight (g), Mean: 27.368 g and 28.468 g
  Body weight gain (g), Mean: 6.263 g and 4.530 g
  Body weight gain, Mean: 8.22 g
  Body weight, Mean: 27.52 g
[5]; 8 weeks
  Body weight (g), Mean: 29.343 g and 27.608 g
  Body weight gain, Mean: 8.90 g
  Body weight, Mean: 28.20 g
[5]; before administration
  Body weight (g), Mean: 21.105 g and 23.938 g
  Body weight, Mean: 19.30 g
[6]; 0 min
  Glucose level (mg/dl), Mean: 144.20 mg/dL and 104.40 mg/dL
[6]; 30 min
  Glucose level (mg/dl), Mean: 386.40 mg/dL and 438.40 mg/dL
[6]; 60 min
  Glucose level (mg/dl), Mean: 301.40 mg/dL and 296.40 mg/dL
[6]; 90 min
  Glucose level (mg/dl), Mean: 194.40 mg/dL and 178.00 mg/dL
[6]; 120 min
  Glucose level (mg/dl), Mean: 135.20 mg/dL and 146.20 mg/dL
